Assay results: paper PMC4817054, “Expansion of a bitter taste receptor family in a polyphagous insect herbivore” (Scientific Reports, 2016)

System: HarmGR195
Conditions: agonist; HarmGR195 expressed alone; SEM, N = 3; HBSS

EC50: 43 ± 7 mM
SMILES: O=C(O)[C@@H]1CCCN1 [proline]
